Read-outs that look alike come from different tables or passages of the source.
Assay: Phase 1 clinical trial: plasma pharmacokinetics
Type: in vivo, human
Conditions: for Tmax / half-life / Cmax / AUC / AUC(0-t): human, plasma, oral; for half-life: read-out: Effective T1/2 (converted)
Experimental: Summary statistics based on preliminary data were obtained for the pharmacokinetics of Compound 1 in patients receiving once-daily doses ranging from 20 mg to 240 mg (Table 5). The mean plasma concentration-time curves of Compound 1 in the once-daily dose groups ranging from 20 mg to 240 mg are shown in Figure 11. In this study, one cycle consists of 28 days, and Cycle 1 Day 1 refers to Day 1 of the first cycle. […] Accumulation was observed after repeated administration. […] Based on these accumulation ratios, the half-life of Compound 1 was estimated to be approximately 4 days. Based on the currently available data, plasma concentrations are considered to have reached steady state by Day 15.
Summary statistics based on preliminary data were obtained for the pharmacokinetics of Compound 1 in patients in the 20 mg QD, 40 mg QD, 80 mg QD, 120 mg QD, 180 mg QD, 240 mg QD, 360 mg QD, and 480 mg daily (240 mg BID) dose groups (Table 6). The mean plasma concentration-time curves of Compound 1 in the 20 mg QD to 480 mg daily (240 mg BID) dose groups are shown in Figure 12 (in Figure 12, Compound 1 is denoted as "DSP-0390"). In this study, one cycle consists of 28 days, and Cycle 1 Day 1 refers to Day 1 of the first cycle. […] The median Tmax ranged from 2 to 8 hours. Accumulation was observed after repeated administration, and assuming linearity based on the observed accumulation ratios, the estimated elimination half-life was considered to be on the order of several days (approximately 1 to 6 days) (data cut-off: March 2024).

[1] = repeated administration, 20 mg to 240 mg once daily, cut-off April 2023

## CC1(C)Oc2cc(Cl)ccc2[C@@H]2OCC3(CCN(CCn4ccnc4)CC3)C[C@H]21 [Compound 1, (4'aR,10'bR)-8'-chloro-1-[2-(1H-imidazol-1-yl)ethyl]-5',5'-dimethyl-4'a,10'b-dihydro-2'H,4'H,5'H-spiro[piperidine-4,3'-pyrano[3,2-c][1]benzopyran] diphosphate]
180 mg, Cycle 2 Day 1, 180 mg, QD, cut-off April 2023, read-out: Tmax (median)
  Tmax: 7 h
240 mg, 240 mg QD, cut-off March 2024
  half-life: 2740 min
240 mg, 480 mg (240 mg BID), cut-off March 2024
  half-life: 1010 min
240 mg, Cycle 1, Day 1, 240 mg QD, cut-off March 2024, read-out: Cmax
  Cmax: 177 ng/mL
240 mg, Cycle 1, Day 1, 240 mg QD, cut-off March 2024, read-out: Tmax [a] median value
  Tmax: 2 h
240 mg, Cycle 1, Day 1, 240 mg QD, tau = 24 hours, cut-off March 2024, read-out: AUCtau [b]
  AUC: 1620 ng·h/mL
240 mg, Cycle 1, Day 1, 480 mg (240 mg BID), cut-off March 2024, read-out: Cmax
  Cmax: 143 ng/mL
240 mg, Cycle 1, Day 1, 480 mg (240 mg BID), cut-off March 2024, read-out: Tmax [a] median value
  Tmax: 4 h
240 mg, Cycle 1, Day 1, 480 mg (240 mg BID), n=1, tau = 12 hours, cut-off March 2024, read-out: AUCtau [b]
  AUC: 1980 ng·h/mL
240 mg, Cycle 1 Day 1, 240 mg, QD, cut-off April 2023, read-out: AUC0-24 (geometric mean)
  AUC(0-t): 1480 ng·h/mL
240 mg, Cycle 1 Day 1, 240 mg, QD, cut-off April 2023, read-out: AUC0-24 (mean)
  AUC(0-t): 1510 ng·h/mL
240 mg, Cycle 1 Day 1, 240 mg, QD, cut-off April 2023, read-out: AUC0-24 (median)
  AUC(0-t): 1620 ng·h/mL
240 mg, Cycle 1 Day 1, 240 mg, QD, cut-off April 2023, read-out: Cmax (geometric mean)
  Cmax: 145 ng/mL
240 mg, Cycle 1 Day 1, 240 mg, QD, cut-off April 2023, read-out: Cmax (mean)
  Cmax: 153 ng/mL
240 mg, Cycle 1 Day 1, 240 mg, QD, cut-off April 2023, read-out: Cmax (median)
  Cmax: 148 ng/mL
240 mg, Cycle 1 Day 1, 240 mg, QD, cut-off April 2023, read-out: Tmax (mean)
  Tmax: 3 h
240 mg, Cycle 1 Day 1, 240 mg, QD, cut-off April 2023, read-out: Tmax (median)
  Tmax: 2 h
240 mg, Cycle 2, Day 1, 240 mg QD, cut-off March 2024, read-out: Cmax,ss
  Cmax: 316 ng/mL
240 mg, Cycle 2, Day 1, 240 mg QD, cut-off March 2024, read-out: Tmax,ss [a] median value
  Tmax: 5 h
240 mg, Cycle 2, Day 1, 240 mg QD, tau = 24 hours, cut-off March 2024, read-out: AUCtau,ss [b]
  AUC: 5330 ng·h/mL
240 mg, Cycle 2, Day 1, 480 mg (240 mg BID), cut-off March 2024, read-out: Cmax,ss
  Cmax: 346 ng/mL
240 mg, Cycle 2, Day 1, 480 mg (240 mg BID), cut-off March 2024, read-out: Tmax,ss [a] median value
  Tmax: 7 h
240 mg, Cycle 2, Day 1, 480 mg (240 mg BID), n=1, tau = 12 hours, cut-off March 2024, read-out: AUCtau,ss [b]
  AUC: 3180 ng·h/mL
240 mg, Cycle 2 Day 1, 240 mg, QD, N=1, cut-off April 2023, read-out: AUC0-24 (geometric mean)
  AUC(0-t): 6670 ng·h/mL
240 mg, Cycle 2 Day 1, 240 mg, QD, N=1, cut-off April 2023, read-out: AUC0-24 (mean)
  AUC(0-t): 6670 ng·h/mL
240 mg, Cycle 2 Day 1, 240 mg, QD, N=1, cut-off April 2023, read-out: AUC0-24 (median)
  AUC(0-t): 6670 ng·h/mL
240 mg, Cycle 2 Day 1, 240 mg, QD, cut-off April 2023, read-out: Cmax (geometric mean)
  Cmax: 359 ng/mL
240 mg, Cycle 2 Day 1, 240 mg, QD, cut-off April 2023, read-out: Cmax (mean)
  Cmax: 360 ng/mL
240 mg, Cycle 2 Day 1, 240 mg, QD, cut-off April 2023, read-out: Cmax (median)
  Cmax: 360 ng/mL
240 mg, Cycle 2 Day 1, 240 mg, QD, cut-off April 2023, read-out: Tmax (mean)
  Tmax: 7 h
240 mg, Cycle 2 Day 1, 240 mg, QD, cut-off April 2023, read-out: Tmax (median)
  Tmax: 7 h
360 mg, 360 mg QD, cut-off March 2024
  half-life: 1440 min
360 mg, Cycle 1, Day 1, 360 mg QD, cut-off March 2024, read-out: Cmax
  Cmax: 359 ng/mL
360 mg, Cycle 1, Day 1, 360 mg QD, cut-off March 2024, read-out: Tmax [a] median value
  Tmax: 4 h
360 mg, Cycle 1, Day 1, 360 mg QD, tau = 24 hours, cut-off March 2024, read-out: AUCtau [b]
  AUC: 4110 ng·h/mL
360 mg, Cycle 2, Day 1, 360 mg QD, cut-off March 2024, read-out: Cmax,ss
  Cmax: 489 ng/mL
360 mg, Cycle 2, Day 1, 360 mg QD, cut-off March 2024, read-out: Tmax,ss [a] median value
  Tmax: 4 h
360 mg, Cycle 2, Day 1, 360 mg QD, tau = 24 hours, cut-off March 2024, read-out: AUCtau,ss [b]
  AUC: 8490 ng·h/mL
Cycle 1 Day 1, 20 mg to 240 mg once daily, cut-off April 2023, read-out: geometric mean of AUC0-24, range over all dose groups
  AUC(0-t): 76 to 1480 ng·h/mL
Cycle 1 Day 1, 20 mg to 240 mg once daily, cut-off April 2023, read-out: geometric mean of Cmax, range over all dose groups
  Cmax: 4 to 145 ng/mL
Cycle 1 Day 1, 20 mg to 240 mg once daily, cut-off April 2023, read-out: median Tmax, range over all dose groups
  Tmax: 2 to 8 h
Cycle 2 Day 1, 20 mg to 240 mg once daily, cut-off April 2023, read-out: geometric mean of AUC0-24, range over all dose groups
  AUC(0-t): 556 to 6670 ng·h/mL
Cycle 2 Day 1, 20 mg to 240 mg once daily, cut-off April 2023, read-out: geometric mean of Cmax, range over all dose groups
  Cmax: 27.7 to 359 ng/mL
Cycle 2 Day 1, 20 mg to 240 mg once daily, cut-off April 2023, read-out: median Tmax, range over all dose groups
  Tmax: 2 to 7 h
once-daily dosing, cut-off April 2023
  plasma concentrations reached steady state: ≤ 15 days
Range of 20 mg to 360 mg QD
  dose dependence of exposure: increased in a dose-dependent manner
[1]
  mean accumulation ratio for AUC0-24, range over dose groups: 3.9-8.6
  mean accumulation ratio for Cmax, range over dose groups: 2.6-6.2
